Three molecules from ChEMBL document CHEMBL4321821, “Opioids as Substrates and Inhibitors of the Genetically Highly Variable Organic Cation Transporter OCT1” (J Med Chem, 2019) can be followed below.

Data set [1] has as its target T1, Solute carrier family 22 member 1 (Homo sapiens, UniProt O15245).
T1 sequence (O15245 whole entry): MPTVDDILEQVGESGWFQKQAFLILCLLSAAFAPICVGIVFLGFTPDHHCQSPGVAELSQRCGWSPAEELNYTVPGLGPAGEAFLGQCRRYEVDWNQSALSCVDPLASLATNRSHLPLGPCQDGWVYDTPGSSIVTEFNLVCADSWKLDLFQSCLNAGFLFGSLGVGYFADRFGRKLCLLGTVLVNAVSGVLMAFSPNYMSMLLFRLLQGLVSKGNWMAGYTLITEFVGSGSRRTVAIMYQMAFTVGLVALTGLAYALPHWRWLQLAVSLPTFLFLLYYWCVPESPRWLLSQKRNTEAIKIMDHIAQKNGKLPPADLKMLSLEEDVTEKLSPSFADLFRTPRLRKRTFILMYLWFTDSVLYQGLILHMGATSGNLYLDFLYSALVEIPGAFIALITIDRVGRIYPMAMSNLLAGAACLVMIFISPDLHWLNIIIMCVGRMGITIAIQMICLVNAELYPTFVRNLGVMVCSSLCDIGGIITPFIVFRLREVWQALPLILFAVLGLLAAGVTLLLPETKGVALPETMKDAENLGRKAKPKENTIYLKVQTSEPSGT
Kind of data set: Inhibition of human OCT1 expressed in HEK293 cells assessed as reduction in ASP+ substrate uptake by microplate reader based analysis. Format: cell-based.

A short description of data set [2]: Unbound Cmax in human at 60 mg, po. It is filed as ADME. The settings on record: in vivo.
Data set [3] can be described thus: Unbound maximal portal vein concentration of in human at 60 mg, po. The conditions noted are these: in vivo. It is filed as ADME, tissue-based.
Data set [4] deals with T2, OCT1 (SLC22A1) (Homo sapiens, UniProt O15245).
T2 sequence (O15245 whole entry): T1 sequence (O15245 whole entry)
Kind of data set: Substrate activity at human OCT1 expressed in HEK293 cells assessed as increase in compound uptake at 0.1 uM incubated for 2 mins by LC-MS/MS analysis relative to control empty vector transfected cells. The settings on record: HEK293 cells that express human OCT1, read-out: FC. Format: cell-based.

A short description of data set [5]: Cmax in human at 60 mg, po. The conditions noted are these: in vivo. Format: ADME. More on the design: dose 60 mg, route oral.
The target in data set [6] is T2, OCT1 (SLC22A1). Kind of data set: Substrate activity at human OCT1 expressed in HEK293 cells assessed as increase in compound uptake at 0.05 uM incubated for 2 mins by LC-MS/MS analysis relative to control empty vector transfected cells. Format: cell-based. The settings on record: HEK293 cells that express human OCT1, read-out: FC.
The nature of data set [7]: Ratio of unbound maximal portal vein concentration in human at 60 mg, po to inhibition of human OCT1 expressed in HEK293 cells assessed as reduction in ASP+ substrate uptake by microplate reader based analysis. Format: ADME, organism-based. The settings on record: in vivo.
In data set [8] the target is T2, OCT1 (SLC22A1). Kind of data set: Substrate activity at human OCT1 expressed in HEK293 cells assessed as increase in compound uptake at 0.5 uM incubated for 2 mins by LC-MS/MS analysis relative to control empty vector transfected cells. The conditions noted are these: HEK293 cells that express human OCT1, read-out: FC. It is filed as cell-based.
The nature of another data set: in vitro. The conditions noted are these: PAMPA.
Data set [9] can be described thus: Ratio of unbound Cmax in human at 60 mg, po to inhibition of human OCT1 expressed in HEK293 cells assessed as reduction in ASP+ substrate uptake by microplate reader based analysis. The settings on record: in vivo. Format: ADME, organism-based.
The nature of data set [10]: Ratio of unbound Cmax in human at 50 mg, iv to inhibition of human OCT1 expressed in HEK293 cells assessed as reduction in ASP+ substrate uptake by microplate reader based analysis. The conditions noted are these: in vivo. It is filed as ADME, organism-based.
Data set [11] is described as follows: Unbound Cmax in human at 50 mg, po. The settings on record: in vivo. It is filed as ADME.
Data set [12] in a line: Cmax in human at 50 mg, iv. Format: ADME. More on the design: dose 50 mg, route intravenous. The settings on record: in vivo.
The nature of data set [13]: Unbound Cmax in human at 50 mg, iv. It is filed as ADME. The settings on record: in vivo.
Data set [14] in a line: Ratio of unbound maximal portal vein concentration in human at 50 mg, iv to inhibition of human OCT1 expressed in HEK293 cells assessed as reduction in ASP+ substrate uptake by microplate reader based analysis. Format: ADME, organism-based. The conditions noted are these: in vivo.
The nature of data set [15]: Unbound maximal portal vein concentration of in human at 50 mg, po. It is filed as ADME, tissue-based. The settings on record: in vivo.
Data set [16] is described as follows: Ratio of unbound Cmax in human at 50 mg, po to inhibition of human OCT1 expressed in HEK293 cells assessed as reduction in ASP+ substrate uptake by microplate reader based analysis. Format: ADME, organism-based. The conditions noted are these: in vivo.
The nature of data set [17]: Ratio of unbound maximal portal vein concentration in human at 50 mg, po to inhibition of human OCT1 expressed in HEK293 cells assessed as reduction in ASP+ substrate uptake by microplate reader based analysis. Format: ADME, organism-based. The settings on record: in vivo.
Data set [18] in a line: Cmax in human at 50 mg, po. The settings on record: in vivo. It is filed as ADME. On the set-up: dose 50 mg, route oral.
A short description of data set [19]: Unbound maximal portal vein concentration of in human at 50 mg, iv. It is filed as ADME, tissue-based. The conditions noted are these: in vivo.
The nature of data set [20]: Unbound Cmax in human at 10 mg, po dosed as controlled release formulation. It is filed as ADME, organism-based. The conditions noted are these: in vivo.
Data set [21] is described as follows: Cmax in human at 5 mg, po dosed as immediate release formulation. On the set-up: dose 5 mg, route oral. The settings on record: in vivo. It is filed as ADME, organism-based.
A short description of data set [22]: Ratio of unbound maximal portal vein concentration in human at 5 mg, po dosed as immediate release formulation to inhibition of human OCT1 expressed in HEK293 cells assessed as reduction in ASP+ substrate uptake by microplate reader based analysis. It is filed as ADME, organism-based. The conditions noted are these: in vivo.
The nature of data set [23]: Ratio of unbound maximal portal vein concentration in human at 10 mg, po dosed as controlled release formulation to inhibition of human OCT1 expressed in HEK293 cells assessed as reduction in ASP+ substrate uptake by microplate reader based analysis. It is filed as ADME, organism-based. The settings on record: in vivo.
A short description of data set [24]: Cmax in human at 10 mg, po dosed as controlled release formulation. Format: ADME, organism-based. More on the design: dose 10 mg, route oral. The conditions noted are these: in vivo.
A short description of data set [25]: Unbound maximal portal vein concentration of in human at 5 mg, po dosed as immediate release formulation. Format: ADME, organism-based. The settings on record: in vivo.
Data set [26] in a line: Ratio of unbound Cmax in human at 10 mg, po dosed as controlled release formulation to inhibition of human OCT1 expressed in HEK293 cells assessed as reduction in ASP+ substrate uptake by microplate reader based analysis. Format: ADME, organism-based. The conditions noted are these: in vivo.
Data set [27] can be described thus: Ratio of unbound Cmax in human at 5 mg, po dosed as immediate release formulation to inhibition of human OCT1 expressed in HEK293 cells assessed as reduction in ASP+ substrate uptake by microplate reader based analysis. The conditions noted are these: in vivo. Format: ADME, organism-based.
The nature of data set [28]: Unbound Cmax in human at 5 mg, po dosed as immediate release formulation. The conditions noted are these: in vivo. It is filed as ADME, organism-based.
The nature of data set [29]: Unbound maximal portal vein concentration of in human at 10 mg, po dosed as controlled release formulation. The conditions noted are these: in vivo. It is filed as ADME, organism-based.

pIC50: −log10 of the molar value.

Description for in vitro: Passive membrane permeability by LC-MS/MS analysis based PAMPA

With `COc1ccc2c(c1)[C@]13CCCC[C@@H]1[C@H](C2)N(C)CC3` [DEXTROMETHORPHAN], the pIC50 in data set [1] is 4.82. Moreover, the fCmax in data set [2] came to 0.007 µM; in data set [3], 4.57 µM. At OCT1 (SLC22A1) [4], the uptake ratio at 2 min, 0.1 µM amounted to 1.3. The molecule further gave a Cmax in data set [5] of 20 nM. Moreover, at OCT1 (SLC22A1) [6], the uptake ratio at 2 min, 0.05 µM is 1.1. For the same molecule, the Ratio in data set [7] is listed as 0.302; in data set [9], 0.0004. In addition, the uptake ratio at 2 min, 0.5 µM on OCT1 (SLC22A1) [8] stood at 0.8. Further, the Papp in “in vitro” is 63.7 ×10⁻⁶ cm/s.
Take `CCOC(=O)[C@@]1(c2ccccc2)CCC=C[C@@H]1N(C)C`: the Ratio in [10] came to 0.064; in data set [14], 0.273; in [16], 0.002; in data set [17] it was 0.211. For the same molecule, the pIC50 in data set [1] was 4.41. In addition, the fCmax in data set [11] was determined as 0.08 µM; in data set [13] it was 2.49 µM; in data set [15] it was 8.18 µM; in [19], 10.58 µM. The Cmax in data set [12] stood at 3310 nM; in data set [18] it was 110 nM. Also, the uptake ratio at 2 min, 0.1 µM on OCT1 (SLC22A1) [4] worked out at 1.3. At OCT1 (SLC22A1) [6], the uptake ratio at 2 min, 0.05 µM amounted to 1.3. The uptake ratio at 2 min, 0.5 µM at OCT1 (SLC22A1) [8] was 1.3. The Papp in the data set “in vitro” was 31.6 ×10⁻⁶ cm/s.
In the case of `COc1ccc2c3c1O[C@H]1C(=O)CC[C@@]4(O)[C@@H](C2)N(C)CC[C@]314` [OXYCODONE], in data set [1], the pIC50 is 2.70. For the same molecule, the uptake ratio at 2 min, 0.1 µM on OCT1 (SLC22A1) [4] was found to be 0.8. Moreover, the fCmax in data set [20] worked out at 0.03 µM; in data set [25] it was 0.54 µM; in data set [28], 0.03 µM; in data set [29] it was 1.06 µM. Besides, the highest concentration (Cmax) in data set [21] and in data set [24] was 50 nM each time. Also, the uptake ratio at 2 min, 0.05 µM on OCT1 (SLC22A1) [6] was 0.9. The Ratio amounted to 0.0003 in [22], 0.001 in data set [23], 0.00001 in data set [26] and 0.00001 in [27]. At OCT1 (SLC22A1) [8], the uptake ratio at 2 min, 0.5 µM was 0.9. In the data set “in vitro”, this molecule came in with a Papp of 17.9 ×10⁻⁶ cm/s.
